Measurements as given in publication PMC4444337 (PLoS ONE, 2015).
“And” between values parts separate entries of the source, which are not always exact repeats. Equal entries are not always repeated.

What was measured:
RSV-A virus = conditions: read-out: EC50 on Hep2 cells, for RSV-A virus; cited from earlier work
RSV [1] = system: RSV; parameters: method as in PMID 19707346, PMID 9359721; conditions: cotton rat model; cited from earlier work
RSV [2] = system: RSV; parameters: method as in PMID 19707346, PMID 9359721; conditions: pediatric patients; cited from earlier work
IL8 = IL8 in BALF (Luminex) after RSV challenge; type: in vivo, African green monkeys; conditions: both studies
Protocol: The following monkey-specific cytokines were determined in BALF using a Luminex bead analysis according to the manufacturer's protocol: Interleukins (IL)-1b, IL-2, IL-4, IL-5, IL-6, IL-8, IL-10, Interferons (IFN)γ, IFNα, Tumor necrosis factor (TNF)α, Regulated on Activation, Normal T Cell Expressed and Secreted (RANTES), and Macrophage inflammatory protein (MIP)-1α. The non-human primate Luminex beads for IFNγ, IFNα, and IL-10 were provided by Texas Biomedical Research Institute (Texas, USA). The beads for the remaining cytokines were obtained from Millipore (Billerica, MA, USA). The samples for cytokine determination were run in duplicates. Human cytokine standards were used for standard curves and for determination of the lower limit of detection for individual cytokines. The results were read using a Luminex 100 System (Texas, USA).

RSV [3] = conditions: cited from earlier work
RSV [4] = system: RSV; parameters: method as in PMID 21148224, PMID 17722899; conditions: single administration, cited from earlier work
RSV subgroup A strain A2 [5] = test: RSV viral load (qRT-PCR, RSV-A F gene) in BALF/throat after RSV A2 challenge; type: in vivo, African green monkeys; conditions: for Peak log VL (Median) in BALF: qRT-PCR
Protocol: In Study 1 all animals were followed until day 13 post-inoculation, when the necropsy took place.
In Study 2 all animals were followed until day 15 post-inoculation, when the necropsy took place.
Bronchoalveolar lavage fluid (BALF), nasal and throat swabs and blood samples were collected every 2 days from day 1 postinfection up to day 11 (study 1) and day 13 (study 2). For BALF collection, monkeys were sedated with […] (0.02–0.05 mg/kg) administered intramuscularly to allow passage of sterile laryngoscope and endotracheal tube. BAL was performed by laryngoscopy by inserting a shortened Kendall Sovereign feeding tube and urethral catheter through the endotracheal tube and approximately 10 mL of phosphate buffer saline (10 mL, pH 7.4) was instilled and gently suctioned back into the syringe promptly to recover approximately 5–7 mL of BAL in the syringe. Later, the adjustment of the dilution was done based on urea and protein concentration. White blood cell (WBC) count from BALF was analyzed using automated blood analysis instrumentation (Antech Diagnostics, Lake Success, NY, USA).
All animals were challenged with 1.5mL of 1 × 10^4 pfu/mL RSV subgroup A—strain A2 virus intranasally (i.n.) and intratracheally (i.t.) on day 0. […] The virus was thawed at room temperature and immediately put on ice.
For each inoculation, 1.5 mL were aspirated with a 3 mL syringe. After being anesthetized with 10 mg/mL ketamine, the animals were placed in dorsal recumbency. 0.25 mL of the virus was instilled drop-by-drop into each nostril and allowed to absorb for 20 sec. Once the absorption was complete, a Kendall Sovereign Feeding Tube and Urethral Catheter, Size 5 Fr, was trimmed about one inch on each side and inserted intratracheally using a laryngoscope. Once in place, 1mL of virus was instilled and flushed into the trachea with 7 mL of air.
RNA was extracted using a previously described protocol.
RSV was quantified using one-Step RT-PCR Master Mix reagents (Applied Bio systems, USA). Amplification and detection were performed in a ABI PRISM 7700 Sequence Detection System (Applied Biosystems, USA) under the following conditions: an initial reverse transcription at 48°C for 30 minutes, followed by PCR activation at 95°C for 10minutes and 45 cycles of amplification (15 sec at 95°C and 1minutes at 60°C).
The IEC-B assay was run as control. The viral load (VL) was expressed as RSV A-F copy numbers and transformed in Δ log10 values. The limit of detection was 10 copies of RSV F gene. The antiviral effect was calculated as differences between peak VL and area under the curve (AUC) VL based on Δ log10 RSV from different groups.

RSV [6] = system: RSV; parameters: method as in PMID 21148224; conditions: slow single bolus injection; cited from earlier work
[7] = Safety analysis: clinical symptoms, blood counts, serum chemistry; type: in vivo, African green monkeys; conditions: compound treated vs vehicle treated groups
Protocol: The animals were monitored for clinical symptoms such as body temperature changes indicating a fever, signs of a cold, runny nose, sneezing, loss of appetite, and body weight. Blood counts and serum chemistry were assessed every second day. The safety findings were compared between the vehicle groups and the compound groups, to identify possible compound related adverse events.

RSV subgroup A strain A2 [8] = test: Lung histopathology (inflammation) in RSV-infected animals; type: in vivo, African green monkeys
Protocol: Tissues (administration site, heart, liver, lung, pancreas, skeletal muscle and trachea) were fixed in 10% phosphate-buffered formalin, paraffin-embedded, sectioned at 5 μm, stained with hematoxylin-eosin (H&E) and evaluated microscopically. For the lung, histological examination was performed on the right lung only, the left lung lobe was sampled for bioanalytical purposes. At tissue trimming, representative cross sections were taken from the cranial, mid and caudal lung lobe in all animals including the central part (with large bronchus) and the peripheral part. Three lung sections per animal (cranial, mid and caudal lobe) with two samples each (central and peripheral) were evaluated for each animal. To facilitate comparison between groups, a general overall score for inflammation was given for each lung section. Mean inflammatory scores were determined for each animal (mean of 3 lung lobes) and per dose group (S2 Fig).
The necropsy was performed at day 13 for Study 1 and at Day 15 for Study 2. Before necropsy, a sample for complete blood count and plasma sample was taken. Euthanasia procedures adhered to the current Report of the American Veterinary Medical Association Panel on Euthanasia. The anesthesia was performed with a combination of ketamine hydrochloride (7–15 mg/kg) and either acetylpromazine maleate (acepromazine) (0.55 mg/kg) or xylanin (Rompun) (0.6 mg/kg) followed by exsanguinations via the femoral vein. The blood taken was recorded. Thereafter, an injection of 390 mg/kg sodium pentobarbital intravenously was given. Death was defined as the cessation of respiration and of heartbeat. The necropsy was performed according to BIOQUAL SOPs and a board-certified veterinary pathologist from the Charles River Laboratories, Pathology Associates Division (PAI) was present at necropsy.

For `NC(=O)c1ncn([C@@H]2O[C@H](CO)[C@@H](O)[C@H]2O)n1` [ribavirin], the EC50 (RSV-A virus) is given as 30 µM.
In the case of “palivizumab: humanized monoclonal antibody indicated for RSV prophylaxis in high-risk children”, the “Exposure level to achieve complete inhibition of the RSV shedding” value (RSV [1]) is given as 40 µg/mL and the “Exposure levels required to achieve 50% prophylactic effectiveness” value (RSV [2]) is given as 37 to 72 µg/mL.
In the case of `Cc1ccc(CCCO)c(NCc2ccc3nc(NCCCN4CCOCC4)n(Cc4nc(C)ccc4O)c3c2)c1` [TMC353121], the “IL8 production in BALF, control vs treated animals” value (IL8) is listed as “no significant reduction in IL8 production”, the “pEC50 (anti-RSV activity)” value (RSV [3]) is listed as 9.9 and the “Antiviral effect in treated compared with untreated groups” value (RSV [4]; mice) is listed as 0.5–1 log. The “Lung histopathology in mice” value (RSV [4]) was “improved lung histopathology”, the “Plasma exposure at which complete inhibition of RSV shedding was observed” value (RSV subgroup A strain A2 [5]; Px500 arm) was 0.39 µg/mL and the “Timing of peak viral shedding” value (RSV subgroup A strain A2 [5]; Study 1, Px50, 3 out of 5 animals) was “delayed peak viral shedding from day 7 to day 9”. The “Peak log VL (Median) in BALF” value (RSV subgroup A strain A2 [5]; Study 1, Px50, vehicle Vh1 8.15) was 6.88 log10, the “Δ log (Median): reduction in peak VL vs vehicle treated group, BALF” value (shortened to “Δ log (Median): reduction in peak VL”) (RSV subgroup A strain A2 [5]; Study 1, Px50 vs Vh1) was -1.06 log10 and the “Decrease in peak VL in BALF compared with the control group” value (RSV subgroup A strain A2 [5]; Study 1, Tx50) was 1.15 log10. For the same compound, the “Peak log VL (Median) in BALF” value (RSV subgroup A strain A2 [5]; Study 1, Tx50, vehicle Vh1 8.15) was 7 log10 and 7.00 log10, the “Δ log (Median): reduction in peak VL” value (RSV subgroup A strain A2 [5]; Study 1, Tx50 vs Vh1) was -1.1 log10 and the “Peak log VL (Median) in BALF” value (RSV subgroup A strain A2 [5]; Study 2, Px5, vehicle Vh2 5.17) was 5.23 log10. The “Δ log (Median): reduction in peak VL” value (RSV subgroup A strain A2 [5]; Study 2, Px5 vs Vh2) was 0 log10, the “Viral replication during the entire study” value (RSV subgroup A strain A2 [5]; Study 2, Px500, except one animal with a viral blip at day 10) was “complete inhibition of viral replication” and the “Peak log VL (Median) in BALF” value (RSV subgroup A strain A2 [5]; Study 2, Px500, vehicle Vh2 5.17) was 0 log10. The “VL in BAL 24h after the drug infusion was stopped” value (RSV subgroup A strain A2 [5]; Study 2, one Px500 animal, day 10, below limit of detection at day 9 in presence of drug) was 2 log, the “Antiviral activity across dose groups” value (RSV subgroup A strain A2 [5]; from 1log10 reduction of peak viral load to complete inhibition of RSV replication) was “dose-dependent antiviral activity” and the “Delay in peak viral shedding” value (RSV subgroup A strain A2 [5]; prophylactic administrations (Px50, Px5)) was 2 days. The “Peak VL reduction” value (RSV subgroup A strain A2 [5]; therapeutic (+1day postchallenge) or prophylactic administration at exposure levels 3- to 5-fold above the EC50c) was 1 log10, the “Antiviral activity in rodent models of RSV infection” value (RSV [6]) was “significant antiviral activity” and the “Drug related adverse events (clinical symptoms, blood counts, serum chemistry)” value [7] was “no drug related adverse events were observed”. The “Lung histopathology: improvement” value (RSV subgroup A strain A2 [8]; Study 1, Tx50 and Px50 groups) was “No improvement on lung histopathology”, the “Lung histopathology: inflammatory changes” value (RSV subgroup A strain A2 [8]; Study 2, Px5 group (as vehicle control), slight to marked degree) was “very pronounced (inflammatory) changes” and the “Lung histopathology: inflammatory changes” value (RSV subgroup A strain A2 [8]; Study 2, Px500 group, minimal to occasionally slight degree) was “much less pronounced changes”.
